What was measured:
[1] = instrument: DT, stepped-field
[2] = instrument: DT, single field, calibrated with Agilent tune mix (Agilent)

Structure (SMILES)	collision cross section (N2) ([1]; [M+2Na-H]+) [Å²]	collision cross section (N2) ([1]; [M+H]+) [Å²]	collision cross section (N2) ([1]; [M+Na]+) [Å²]	further results
CCCCCCCCCCCCC=CC[C@@H](O)[C@H](CO[C@@H]1O[C@H](CO)[C@@H](O)C(O)C1O)NC(=O)CCCCCCCCCCCCCCCCCCCCCCCCCCCCCC (stereo not given in full) [GlcCer(49:01)]	–	–	–	collision cross section (N2) ([1]; [M+Na-2H2O]+): 317.53 Å²
CCCCCCCCCCCCCCCCCCCCCCC(=O)N[C@@H](COP(=O)([O-])OCC[N+](C)(C)C)[C@H](O)CCCCCCCCCCCCCCC [SM(41:00)]	301.12	302.29	–	–
CCCCC/C=C\C=C/CCCCCCCCC(=O)O[C@H](COC(=O)CCCCCCCCCCCCCCCCC)COP(=O)([O-])OCC[N+](C)(C)C [PC(36:02)]	290.39	285.92	288.63	collision cross section (N2) ([1]; [M+Cl]-): 295.12 Å²; collision cross section (N2) ([1]; [M+HCOO]-): 295.45 Å²; collision cross section (N2) ([1]; [M+K]+): 289.17 Å²
CCCCCC/C=C\CCCCCCCC(=O)O[C@H](COCCCCCCCCCCCCCCCCCC)COP(=O)(O)OCCN [PE(o34:01)]	276.22	–	275.79	–
CCCCC/C=C\C/C=C\CCCCCCCCCCCC(=O)O[C@H](COC(=O)CCCCCCCCCCCCCCC)COP(=O)(O)OCCN [PE(38:02)]	288.8	–	–	–
CCCCCCCC/C=C\CCCCCCCC(=O)OC[C@H](COP(=O)(O)OC[C@H](N)C(=O)O)OC(=O)CCCCCCC/C=C\CCCCCCCC [PS(36:02)]	285.97	280.92	–	collision cross section (N2) ([1]; [M+K]+): 285.23 Å²; collision cross section (N2) ([1]; [M-H]-): 281.82 Å²
CCCCCCCC/C=C\CCCCCCCCCC(=O)OC[C@H](COP(=O)(O)OC[C@H](N)C(=O)O)OC(=O)CCCCCCCCCCCCCCCCCCC [PS(40:01)]	301.13	295.93	–	–
CC/C=C\C/C=C\C/C=C\C/C=C\CCCCC(=O)O[C@H](COC(=O)CCCCCCC/C=C\CCCCCCCC)COP(=O)(O)O [PA(36:05)]	269.3	–	–	–
CCCCCCCCCCCCC=CC[C@@H](O)[C@H](COP(=O)([O-])OCC[N+](C)(C)C)NC(=O)CC=CCCCCCCCCCCCCCCCCCCC [SM(41:02)]	–	298.91	296.38	collision cross section (N2) ([1]; [M+HCOO]-): 303.33 Å²
CCCCC/C=C\C/C=C\C/C=C\CCCCC(=O)OC[C@H](COP(=O)(O)OC[C@H](N)C(=O)O)OC(=O)CCCCCCCCC/C=C\CCCCCCCCCC [PS(40:04)]	298.27	291.15	295.22	collision cross section (N2) ([1]; [M+K]+): 295.44 Å²; collision cross section (N2) ([1]; [M-H]-): 291.3 Å²
CCCCCCCCCCCCC=CC[C@@H](O)[C@H](CO[C@@H]1O[C@H](CO)[C@@H](O)C(O)C1O)NC(=O)CC=CCC=CCCCCCCCCCCCCCCCCC (stereo not given in full) [GlcCer(42:03)]	–	–	297.28	–
CCCCCCCCCCCCCCCCCCCCCCCC(=O)N[C@@H](CO)[C@H](O)CCCCCCCCCCCCCCC [Cer(42:00)]	–	280.05	281.85	–
CCCCCCCCCCCCC=CC[C@@H](O)[C@H](COP(=O)([O-])OCC[N+](C)(C)C)NC(=O)CCCCCCCCCCCCCCCCCCCCC [SM(40:01)]	–	297.88	296	collision cross section (N2) ([1]; [M+Cl]-): 300.79 Å²; collision cross section (N2) ([1]; [M+HCOO]-): 301.44 Å²
CCCCCCCCCC/C=C\CCCCCCCCCC(=O)O[C@H](COC(=O)CCCCCCCCCCCCCCC)COP(=O)(O)OC[C@H](N)C(=O)O [PS(38:01)]	295.38	289.63	–	–
CCCCCCCCCCCCC=CC[C@@H](O)[C@H](CO)NC(=O)CC=CCCCCCCCCCCCCCCCCCCCCC [Cer(43:02)]	–	–	–	collision cross section (N2) ([1]; [M+H-H2O]+): 275.52 Å²
CCCCC/C=C\C/C=C\C/C=C\C/C=C\CCCCCC(=O)O[C@H](COC(=O)CCCCCCCCCCCCCCCC)COP(=O)(O)OC[C@H](N)C(=O)O [PS(39:04)]	291.95	–	–	–

Structure (SMILES)	collision cross section (N2) ([1]; [M+2Na-H]+) [Å²]	collision cross section (N2) ([1]; [M+H]+) [Å²]	collision cross section (N2) ([1]; [M+Na]+) [Å²]	further results
CCCCCCCCCCCCCCCCCCCCCCCC(=O)O[C@H](COC(=O)CCCCCCCCC)COP(=O)([O-])OCC[N+](C)(C)C [PC(34:00)]	286.12	–	–	–
CCCCC/C=C\CCCCCCCC(=O)OC[C@H](COP(=O)(O)OCCN)OC(=O)CCCCCCCCCCCCCCCCCCCCC [PE(37:01)]	286.74	–	284.35	–
CCCC/C=C\C/C=C\CCCCCCCC(=O)O[C@H](COCCCCCCCCCCCCCCCCCC)COP(=O)(O)OC[C@H](N)C(=O)O [PS(o35:02)]	282.4	–	–	–
CCCCCCCCCCCCC=CC[C@@H](O)[C@H](CO)NC(=O)CCCCCCCCCCCCCCCCC [Cer(36:01)]	–	–	–	collision cross section (N2) ([1]; [M+H-H2O]+): 257.25 Å²
CCCCC/C=C\C/C=C\CCCCCCCC(=O)O[C@H](COCCCCCCCCCCCCCCCCCC)COP(=O)(O)OCCN [PE(o36:02)]	280.9	274.98	280.37	–
CC/C=C\C/C=C\C/C=C\C/C=C\C/C=C\C/C=C\CCC(=O)OC[C@H](COP(=O)(O)OC[C@H](N)C(=O)O)OC(=O)CCCCCCCCCCC/C=C\C/C=C\CCCCC [PS(44:08)]	301.25	–	–	–
CCCCC/C=C\C/C=C\C/C=C\CCCCC(=O)OC[C@H](COP(=O)(O)OCCN)OC(=O)CCCCCCCCCCC/C=C\C/C=C\CCCCC [PE(40:05)]	289.53	–	289.38	collision cross section (N2) ([1]; [M-H]-): 280.89 Å²
CCCCCCCCCCCCC=CC[C@@H](O)[C@H](CO[C@@H]1O[C@H](CO)[C@@H](O)C(O)C1O)NC(=O)CC=CCC=CCCCCCCCCCCCCCCCCCC (stereo not given in full) [GlcCer(43:03)]	–	–	300.75	–
CCCCC/C=C\C/C=C\CCCCCCCCCCCC(=O)O[C@H](COC(=O)CCCCCCCCCCCCCCCCCCC)COP(=O)(O)OC[C@H](N)C(=O)O [PS(42:02)]	306.07	299.5	302	–
CCCCCCCC/C=C\CCCCCCCCCC(=O)O[C@H](COC(=O)CCCCCCCCCCC)COP(=O)(O)O [PA(32:1)]	–	–	–	collision cross section (N2) ([2]; [M-H]-): 249 Å²
CCCCCCCCCCCCCCC(=O)OC[C@@H](O)COP(=O)([O-])OCC[N+](C)(C)C [LPC(15:0)]	–	–	–	collision cross section (N2) ([2]; [M+H]+): 225 Å²
CCCCCCCC/C=C\CCCCCCCCCC(=O)OC[C@@H](O)COP(=O)(O)OCCN [LPE(20:1)]	–	–	–	collision cross section (N2) ([2]; [M-H]-): 218.4 Å²
CCCCC/C=C\C/C=C\CCCCCCCC(=O)OC[C@H](COP(=O)(O)O[C@H]1C(O)C(O)C(O)[C@@H](O)C1O)OC(=O)CCCCCCCCC/C=C\CCCCCCCCCC (stereo not given in full) [PI(40:3)]	–	–	–	collision cross section (N2) ([2]; [M-H]-): 299.2 Å²
CC/C=C\C/C=C\C/C=C\C/C=C\C/C=C\C/C=C\CCC(=O)O[C@@H](CO)COC(=O)CCCCCCCCCCCCCCCCCCC [DG(42:6)]	–	–	–	collision cross section (N2) ([2]; [M+NH4]+): 280.3 Å²
CCCCCCCCCCCCCCCCC(=O)OC[C@@H](O)COP(=O)([O-])OCC[N+](C)(C)C [LPC(17:0)]	–	–	–	collision cross section (N2) ([2]; [M+HCOO]-): 237.7 Å²

— the C3SDB collision cross section collection
